Laboratory results reported in patent US20260285853A1, “COMPOUNDS AND METHODS FOR MODULATING SPLICING” (REMIX THERAPEUTICS INC., priority 2023, published 2026).

Tests used:
Type in all cases: cell-based
MYB mRNA [1] = test: Gene panel canonical junction qPCR assay, decrease in CJ mRNA, Table 3; conditions: decrease in CJ mRNA levels, canonical junction qPCR, gene panel
In short: (§1)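 Cells: A673 or K562; 24 h compound exposure, 37 °C, 5% CO2; 11-pt 3-fold series from 10 uM final; DMSO ≤0.25%. Lysate → cDNA → qPCR with junction-spanning primers/probe for CJ transcript. ΔCt vs housekeeper, ΔΔCt vs DMSO, 2^(−ΔΔCt), % response, 4PL → IC50.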

HTT mRNA [2] = test: as above; conditions: decrease in CJ mRNA levels, canonical junction qPCR, gene panel
In short: as §1

MYB mRNA [3] = test: Splicing RT-qPCR assay (THP), Table 2A; conditions: Table 2A, THP; for AC50: MYB alternative junction (AJ) mRNA, read-out: MYB AJ (AC50, increase in alternative junction mRNA); for IC50: MYB canonical junction (CJ) mRNA, read-out: MYB CJ (IC50, decrease in canonical junction mRNA)
[4] = system: SH-SY5Y (human neuroblastoma) cells; test: Cell viability, Cell Titer Glo 2.0 assay; conditions: read-out: Viability SHSY5Y.3 GI50
In short: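 CellTiter-Glo 2.0 luminescence read-out after 72 h compound exposure (37 °C, 5% CO2); medium-only wells as blank. DMSO 0.1% final.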

HTT mRNA [5] = test: Splicing RT-qPCR assay (THP), Table 2A; conditions: Table 2A, THP; for AC50: HTT alternative junction (AJ) mRNA, read-out: HTT AJ (AC50, increase in alternative junction mRNA); for IC50: HTT canonical junction (CJ) mRNA, read-out: HTT CJ (IC50, decrease in canonical junction mRNA)

| Structure (SMILES) | IC50 (MYB mRNA [1]) [nM] | IC50 (HTT mRNA [2]) [nM] | AC50 (MYB mRNA [3]) [nM] | IC50 (MYB mRNA [3]) [nM] | GI50 [4] [nM] | AC50 (HTT mRNA [5]) [nM] | IC50 (HTT mRNA [5]) [nM] |
| --- | --- | --- | --- | --- | --- | --- | --- |
| COc1nc2c(C(=O)Nc3cc(CNS(C)(=O)=O)c4nn(C)cc4c3)ccc(N3C[C@H](C)N[C@@H](C)C3)c2s1 [Compound 731, 7-((3S,5S)-3,5-dimethylpiperazin-1-yl)-2-methoxy-N-(2-methyl-7-(methylsulfonamidomethyl)-2H-indazol-5-yl)benzo[d]thiazole-4-carboxamide 2,2,2-trifluoroacetate] | 100 to 1000 | > 10000 | 100 to 1000 | 100 to 1000 | 1000 to 10000 | > 10000 | > 10000 |
| COc1nc2c(C(=O)Nc3cc(F)c4nn(C)cc4c3)ccc(N3CCN[C@@H](C(C)C)C3)c2s1 [Compound 732] | < 100 | > 10000 | < 100 | < 100 | 100 to 1000 | > 10000 | > 10000 |
| Cc1cn2cc(NC(=O)c3ccc(N4CCC(NC5CC5)CC4)c4cn(C)nc34)nc2c(Cn2ccc(=O)[nH]c2=O)n1 [Compound 733, 4-(4-(cyclopropylamino)piperidin-1-yl)-N-(8-((2,4-dioxo-3,4-dihydropyrimidin-1(2H)-yl)methyl)-6-methylimidazo[1,2-a]pyrazin-2-yl)-2-methyl-2H-indazole-7-carboxamide 2,2,2-trifluoroacetate] | > 10000 | > 10000 | > 10000 | > 10000 | 1000 to 10000 | > 10000 | > 10000 |
| Cc1cn2cc(NC(=O)c3ccc(N4CCC(NC5CC5)CC4)c4cn(C)nc34)nc2c(CN)n1 [Compound 734, N-(8-(aminomethyl)-6-methylimidazo[1,2-a]pyrazin-2-yl)-4-(4-(cyclopropylamino)piperidin-1-yl)-2-methyl-2H-indazole-7-carboxamide bis(2,2,2-trifluoroacetate)] | > 10000 | > 10000 | > 10000 | > 10000 | > 10000 | > 10000 | > 10000 |
| Cn1cc2cc(NC(=O)c3ccc(N4CCC(NC5CC5)CC4)c4cn(C)nc34)cc(CNS(C)(=O)=O)c2n1 [Compound 735, 4-(4-(cyclopropylamino)piperidin-1-yl)-2-methyl-N-(2-methyl-7-(methylsulfonamidomethyl)-2H-indazol-5-yl)-2H-indazole-7-carboxamide 2,2,2-trifluoroacetate] | 1000 to 10000 | > 10000 | 1000 to 10000 | 1000 to 10000 | > 10000 | > 10000 | > 10000 |
| CCNC1CCN(c2ccc(C(=O)Nc3cc4cn(C)nc4cc3OC)c3nn(C)cc23)C(C)C1 (stereo not drawn) [Compound 736, 4-(4-(ethylamino)-2-methylpiperidin-1-yl)-N-(6-methoxy-2-methyl-2H-indazol-5-yl)-2-methyl-2H-indazole-7-carboxamide 2,2,2-trifluoroacetate] | > 10000 | > 10000 | 1000 to 10000 | > 10000 | 1000 to 10000 | > 10000 | > 10000 |
| CCNC1CCN(c2ccc(C(=O)Nc3cc4cn(C)nc4cc3OC)c3nn(C)cc23)C(C)(C)C1 (stereo not drawn) [Compound 737, 4-[4-(ethylamino)-2,2-dimethyl-1-piperidyl]-N-(6-methoxy-2-methyl-indazol-5-yl)-2-methyl-indazole-7-carboxamide] | > 10000 | > 10000 | > 10000 | > 10000 | 1000 to 10000 | > 10000 | > 10000 |
| COc1nc2c(C(=O)Nc3cc(C)c4nn(C)cc4n3)ccc(N3C[C@H](C)N[C@@H](C)C3)c2s1 [Compound 738, N-(2,7-dimethyl-2H-pyrazolo[4,3-b]pyridin-5-yl)-7-((3S,5S)-3,5-dimethylpiperazin-1-yl)-2-methoxybenzo[d]thiazole-4-carboxamide 2,2,2-trifluoroacetate] | < 100 | > 10000 | < 100 | < 100 | 100 to 1000 | > 10000 | > 10000 |
| COc1nc2c(C(=O)Nc3cc(C)c4nc(C)cn4n3)ccc(N3C[C@H](C)N[C@@H](C)C3)c2s1 [Compound 739, N-(2,8-dimethylimidazo[1,2-b]pyridazin-6-yl)-7-[(3S,5S)-3,5-dimethylpiperazin-1-yl]-2-methoxy-1,3-benzothiazole-4-carboxamide] | < 100 | 1000 to 10000 | < 100 | < 100 | 100 to 1000 | 100 to 1000 | 1000 to 10000 |
| COc1nc2c(C(=O)Nc3cccc4c3nnn4C)ccc(N3C[C@H](C)N[C@@H](C)C3)c2s1 [Compound 740, 7-[(3S,5S)-3,5-dimethylpiperazin-1-yl]-2-methoxy-N-(1-methylbenzotriazol-4-yl)-1,3-benzothiazole-4-carboxamide] | > 10000 | 1000 to 10000 | > 10000 | > 10000 | 1000 to 10000 | > 10000 | 1000 to 10000 |
| COc1nc2c(C(=O)Nc3cc(F)c4nn(C)cc4c3)ccc(N3C[C@H](C)NC4(CC4)C3)c2s1 [Compound 741] | < 100 | > 10000 | < 100 | < 100 | < 100 | 1000 to 10000 | > 10000 |
| COc1nc2c(C(=O)Nc3cc(F)c4nn(C)cc4c3)ccc(N3CCN[C@@H](C(C)(C)C)C3)c2s1 [Compound 742, 7-[(3S)-3-tert-butylpiperazin-1-yl]-N-(7-fluoro-2-methyl-indazol-5-yl)-2-methoxy-1,3-benzothiazole-4-carboxamide] | 100 to 1000 | > 10000 | 100 to 1000 | 100 to 1000 | 1000 to 10000 | > 10000 | > 10000 |
| COc1nc2c(C(=O)Nc3cc(F)c4nn(C)cc4c3)ccc(N3CCN[C@@H](CO)C3)c2s1 [Compound 743, (R)—N-(7-fluoro-2-methyl-2H-indazol-5-yl)-7-(3-(hydroxymethyl)piperazin-1-yl)-2-methoxybenzo[d]thiazole-4-carboxamide 2,2,2-trifluoroacetate] | < 100 | < 100 | < 100 | < 100 | < 100 | < 100 | < 100 |
| COc1nc2c(C(=O)Nc3cc(F)c4nn(C)cc4c3)ccc(N3C[C@@H](C)N(C)[C@@H](C)C3)c2s1 [Compound 744, N-(7-fluoro-2-methyl-indazol-5-yl)-2-methoxy-7-[(3R,5S)-3,4,5-trimethylpiperazin-1-yl]-1,3-benzothiazole-4-carboxamide] | < 100 | 1000 to 10000 | < 100 | < 100 | 100 to 1000 | 100 to 1000 | 1000 to 10000 |
| COc1nc2c(C(=O)Nc3cc(F)c4nn(C)cc4c3)ccc(N3CCN4CCC[C@H]4C3)c2s1 [Compound 745, 7-[(8aS)-3,4,6,7,8,8a-hexahydro-1H-pyrrolo[1,2-a]pyrazin-2-yl]-N-(7-fluoro-2-methyl-indazol-5-yl)-2-methoxy-1,3-benzothiazole-4-carboxamide] | < 100 | 100 to 1000 | < 100 | < 100 | 100 to 1000 | 100 to 1000 | 100 to 1000 |
